Laboratory results from US20160108049A1 (TAKEDA Gmbh, priority 2011, published 2016).

Experiments:
human PDE5 = biological target: T1, human PDE5 (Homo sapiens, UniProt O76074); experiment: Inhibition of PDE5 activity (platelet lysate, SPA assay); assay type: biochemical; conditions: 0.5 μM cGMP, read-out: PDE5 Inhibitory values measured as -logIC50 (converted)
T1 construct: from tissue; host or cells: human platelets from fresh donor blood (platelet lysate)
Summary of the method: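 Human platelet lysate (10,000 g supernatant) served as PDE5 source, with 1 μM motapizone and 10 nM PDE2 inhibitor added, in Tris pH 7.4, 5 mM Mg2+, BSA. Substrate 0.5 μM [3H]cGMP, 10–20% conversion; 5 min preincubation then 15 min at 37 °C, stopped by SPA beads with IBMX. IC50 by non-linear regression.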

PDE4B1 = biological target: T2, PDE4B1 (Homo sapiens, UniProt Q07343); experiment: Inhibition of PDE4 activity (PDE4B1, SPA assay); assay type: biochemical; conditions: recombinant PDE4B1, 0.5 μM cAMP; read-out: PDE4B1 Inhibitory values measured as -logIC50 (converted)
T2 construct: made in house; host or cells: SF21 insect cells (baculovirus; virus made in SF9 cells, pCR-Bac vector)
Summary of the method: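 Baculovirus-expressed enzyme from SF21 cell 1000×g supernatant; substrate 0.5 μM [3H]cAMP in 20 mM Tris pH 7.4, 5 mM Mg2+, 0.1 mg/ml BSA, 10-20% conversion. 5 min preincubation at 37 °C, 15 min reaction, stopped by SPA beads with IBMX; IC50 by non-linear regression.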

T2 sequence (Q07343 whole entry): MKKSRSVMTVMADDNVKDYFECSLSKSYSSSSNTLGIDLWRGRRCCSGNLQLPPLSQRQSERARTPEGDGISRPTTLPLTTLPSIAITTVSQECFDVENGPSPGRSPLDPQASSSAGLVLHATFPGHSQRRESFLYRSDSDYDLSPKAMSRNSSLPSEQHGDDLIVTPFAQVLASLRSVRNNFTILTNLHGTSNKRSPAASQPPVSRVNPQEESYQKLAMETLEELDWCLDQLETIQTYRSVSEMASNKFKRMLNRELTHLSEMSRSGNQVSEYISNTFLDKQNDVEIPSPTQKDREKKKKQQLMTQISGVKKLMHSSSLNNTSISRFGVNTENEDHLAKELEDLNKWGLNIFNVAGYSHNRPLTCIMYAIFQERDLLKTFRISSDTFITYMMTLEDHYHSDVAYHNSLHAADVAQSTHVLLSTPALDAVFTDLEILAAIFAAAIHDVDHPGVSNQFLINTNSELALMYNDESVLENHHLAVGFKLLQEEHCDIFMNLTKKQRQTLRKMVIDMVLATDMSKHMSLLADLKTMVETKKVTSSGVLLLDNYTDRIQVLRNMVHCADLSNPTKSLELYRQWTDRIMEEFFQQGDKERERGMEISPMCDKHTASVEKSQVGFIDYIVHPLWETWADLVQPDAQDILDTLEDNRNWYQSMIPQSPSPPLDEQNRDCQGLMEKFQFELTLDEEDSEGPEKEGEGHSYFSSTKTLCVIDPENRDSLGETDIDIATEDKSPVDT

COc1ccc(C2=NN(C3CCN(C(=O)[C@@H](CCC(=O)N4CCCC4)NC(=O)c4c[nH]c5c(-c6c(OCC7CC7)ccc7c6OCO7)ncnc45)CC3)C(=O)[C@@H]3CCCC[C@H]23)cc1OC [Example 105, 4-[5-(cyclopropylmethoxy)-1,3-benzodioxol-4-yl]-N-[(2R)-1-{4-[(4aS,8aR)-4-(3,4-dimethoxyphenyl)-1-oxo-4a,5,6,7,8,8a-hexahydrophthalazin-2(1H)-yl]piperidin-1-yl}-1,5-dioxo-5-(pyrrolidin-1-yl)pentan-2-yl]-5H-pyrrolo[3,2-d]pyrimidine-7-carboxamide]
IC50 (human PDE5): 1 to 10 nM | IC50 (PDE4B1): 1 to 10 nM

COc1ccc(C2=NN(C3CCN(C(=O)[C@H](CCC(=O)NC(C)C)NC(=O)c4c[nH]c5c(-c6c(OCC7CC7)ccc7c6OCO7)ncnc45)CC3)C(=O)[C@@H]3CCCC[C@H]23)cc1OC [Example 106, 4-[5-(cyclopropylmethoxy)-1,3-benzodioxol-4-yl]-N-[(2S)-1-{4-[(4aS,8aR)-4-(3,4-dimethoxyphenyl)-1-oxo-4a,5,6,7,8,8a-hexahydrophthalazin-2(1H)-yl]piperidin-1-yl}-1,5-dioxo-5-(propan-2-ylamino)pentan-2-yl]-5H-pyrrolo[3,2-d]pyrimidine-7-carboxamide]
IC50 (human PDE5): 1 to 10 nM | IC50 (PDE4B1): 1 to 10 nM

COc1ccc(C2=NN(C3CCN(C(=O)[C@@H](CCC(=O)NC(C)C)NC(=O)c4c[nH]c5c(-c6c(OCC7CC7)ccc7c6OCO7)ncnc45)CC3)C(=O)[C@@H]3CCCC[C@H]23)cc1OC [Example 107, 4-[5-(cyclopropylmethoxy)-1,3-benzodioxol-4-yl]-N-[(2R)-1-{4-[(4aS,8aR)-4-(3,4-dimethoxyphenyl)-1-oxo-4a,5,6,7,8,8a-hexahydrophthalazin-2(1H)-yl]piperidin-1-yl}-1,5-dioxo-5-(propan-2-ylamino)pentan-2-yl]-5H-pyrrolo[3,2-d]pyrimidine-7-carboxamide]
IC50 (human PDE5): 1 to 10 nM | IC50 (PDE4B1): 1 to 10 nM

COc1ccc(C2=NN(C3CCN(C(=O)[C@@H](Cc4ccc(F)cc4)NC(=O)c4c[nH]c5c(-c6c(OCC7CC7)ccc7c6OCO7)ncnc45)CC3)C(=O)C(C)(C)C2)cc1OC [Example 108, 4-[5-(cyclopropylmethoxy)-1,3-benzodioxol-4-yl]-N-[(2R)-1-{4-[3-(3,4-dimethoxyphenyl)-5,5-dimethyl-6-oxo-5,6-dihydropyridazin-1(4H)-yl]piperidin-1-yl}-3-(4-fluorophenyl)-1-oxopropan-2-yl]-5H-pyrrolo[3,2-d]pyrimidine-7-carboxamide]
IC50 (human PDE5): < 1 nM | IC50 (PDE4B1): < 1 nM

COc1ccc(C2=NN(C3CCN(C(=O)[C@@H](Cc4ccncc4)NC(=O)c4c[nH]c5c(-c6c(OCC7CC7)ccc7c6OCO7)ncnc45)CC3)C(=O)[C@@H]3CCCC[C@H]23)cc1OC [Example 109, 4-[5-(cyclopropylmethoxy)-1,3-benzodioxol-4-yl]-N-[(2R)-1-{4-[(4aS,8aR)-4-(3,4-dimethoxyphenyl)-1-oxo-4a,5,6,7,8,8a-hexahydrophthalazin-2(1H)-yl]piperidin-1-yl}-1-oxo-3-(pyridin-4-yl)propan-2-yl]-5H-pyrrolo[3,2-d]pyrimidine-7-carboxamide]
IC50 (human PDE5): < 1 nM | IC50 (PDE4B1): < 1 nM

COc1ccc(C2=NN(C3CCN(C(=O)[C@H](Cc4ccccc4)NC(=O)c4c[nH]c5c(-c6c(OCC7CC7)ccc7c6OCO7)ncnc45)CC3)C(=O)C(C)(C)C2)cc1OC [Example 110, 4-[5-(cyclopropylmethoxy)-1,3-benzodioxol-4-yl]-N-[(2S)-1-{4-[3-(3,4-dimethoxyphenyl)-5,5-dimethyl-6-oxo-5,6-dihydropyridazin-1(4H)-yl]piperidin-1-yl}-1-oxo-3-phenylpropan-2-yl]-5H-pyrrolo[3,2-d]pyrimidine-7-carboxamide]
IC50 (human PDE5): 1 to 10 nM | IC50 (PDE4B1): 1 to 10 nM
